Patent US8883841B2, “Oncogenic ras-specific cytotoxic compound and methods of use thereof” (The Board of Regents of the University of Texas System, priority 2005, dated 2014)
“Also recorded” adds a separate entry of the source. Read-outs that look alike come from different tables or passages of the source.

What was measured:
H322 cells = assay: Cell viability, H322 lung cancer cells; assay type: cell-based, human
H460 cells = settings: for IC50 in H460 cells: Table 1, value is the negative log10 of mol/L
LOX IMVI = assay: NCI in-vitro testing, LOX IMVI (Melanoma)
UO-31 = assay: NCI in-vitro testing, UO-31 (Renal Cancer)
NCI-H23 = assay: NCI in-vitro testing, NCI-H23 (Non-Small Cell Lung Cancer)
HCT-116 = assay: NCI in-vitro testing, HCT-116 (Colon Cancer)
A498 = assay: NCI in-vitro testing, A498 (Renal Cancer)
NCI-H226 = assay: NCI in-vitro testing, NCI-H226 (Non-Small Cell Lung Cancer)
NCI-H522 = assay: NCI in-vitro testing, NCI-H522 (Non-Small Cell Lung Cancer)
SK-MEL-28 = assay: NCI in-vitro testing, SK-MEL-28 (Melanoma)
SNB-19 = assay: NCI in-vitro testing, SNB-19 (CNS Cancer)
SF-539 = assay: NCI in-vitro testing, SF-539 (CNS Cancer)
OVCAR-3 = assay: NCI in-vitro testing, OVCAR-3 (Ovarian Cancer)
ACHN = assay: NCI in-vitro testing, ACHN (Renal Cancer)
OVCAR-4 = assay: NCI in-vitro testing, OVCAR-4 (Ovarian Cancer)
NCI/ADR-RES = assay: NCI in-vitro testing, NCI/ADR-RES (Breast Cancer)

O=Cc1cn(Cc2ccc(Cl)cc2)c2ccccc12 [Oncrasin K001, 1H-Indole-3-carboxaldehyde, 1-[(4-chlorophenyl)methyl]-(9CI)]
IC50 (−LogM) (H322 cells; H322, Lung): 4.5 −LogM
toxicity to H322 cells (H322 cells; at 33 μM (the highest concentration tested), ras wild-type): not toxic
effect on H322 cells (H322 cells; wild-type Ras, listed as Oncrasin-1): minimal effect; also recorded: not effective
IC50 (−LogM) (H460 cells; H460, Lung): 6.6 −LogM
concentration that effectively kills H460 cells (H460 cells; K-ras mutant lung cancer cells): 1 µM
IC50 in H460 cells (H460 cells): 6.6
effect on H460 cells (H460 cells; lung cancer cell line): highly effective
IC50 (H460 cells; read-out: IC50, H460 cells, K-Ras Q61H): 250 nM

O=Cc1cn(Cc2cccc(Cl)c2)c2ccccc12 [Oncrasin K027, 1-(3-chlorobenzyl)-1H-indole-3-carbaldehyde]
TGI (LOX IMVI): 1.68E−5 Molar
GI50 (LOX IMVI; Homo sapiens): 44.8 nM
CC50 (LOX IMVI; Homo sapiens, read-out: LC50): 47.2 µM
Percent Growth (LOX IMVI; Log10 Concentration −4.0 Molar): −86%
Percent Growth (LOX IMVI; Log10 Concentration −5.0 Molar): 25%
Percent Growth (LOX IMVI; Log10 Concentration −6.0 Molar): 96%
Percent Growth (LOX IMVI; Log10 Concentration −7.0 Molar): 95%
Percent Growth (LOX IMVI; Log10 Concentration −8.0 Molar): 102%
GI50 (UO-31; Homo sapiens, UO-31): 1580 nM
CC50 (UO-31; Homo sapiens, UO-31, read-out: LC50): > 100 µM
TGI (UO-31; UO-31): 1.55E−6 Molar
Percent Growth (UO-31; UO-31, Log10 Concentration −4.0 Molar): −42%
Percent Growth (UO-31; UO-31, Log10 Concentration −5.0 Molar): 10%
Percent Growth (UO-31; UO-31, Log10 Concentration −6.0 Molar): 50%
Percent Growth (UO-31; UO-31, Log10 Concentration −7.0 Molar): 80%
Percent Growth (UO-31; UO-31, Log10 Concentration −8.0 Molar): 90%
GI50 (NCI-H23; Homo sapiens, NCI-H23): 2900 nM
CC50 (NCI-H23; Homo sapiens, NCI-H23, read-out: LC50): 71.1 µM
TGI (NCI-H23; NCI-H23): 2.10E−5 Molar
Percent Growth (NCI-H23; NCI-H23, Log10 Concentration −4.0 Molar): −54%
Percent Growth (NCI-H23; NCI-H23, Log10 Concentration −5.0 Molar): 31%
Percent Growth (NCI-H23; NCI-H23, Log10 Concentration −6.0 Molar): 57%
Percent Growth (NCI-H23; NCI-H23, Log10 Concentration −7.0 Molar): 82%
Percent Growth (NCI-H23; NCI-H23, Log10 Concentration −8.0 Molar): 94%
TGI (HCT-116; HCT-116): 1.06E−5 Molar
Percent Growth (HCT-116; HCT-116, Log10 Concentration −4.0 Molar): −84%
Percent Growth (HCT-116; HCT-116, Log10 Concentration −5.0 Molar): 2%
Percent Growth (HCT-116; HCT-116, Log10 Concentration −6.0 Molar): 10%
Percent Growth (HCT-116; HCT-116, Log10 Concentration −7.0 Molar): 30%
Percent Growth (HCT-116; HCT-116, Log10 Concentration −8.0 Molar): 68%
GI50 (HCT-116; Homo sapiens, HCT-116): 29.4 nM
CC50 (HCT-116; Homo sapiens, HCT-116, read-out: LC50): 60.6 µM
TGI (A498; A498): 3.33E−8 Molar
Percent Growth (A498; A498, Log10 Concentration −4.0 Molar): −94%
Percent Growth (A498; A498, Log10 Concentration −5.0 Molar): −95%
Percent Growth (A498; A498, Log10 Concentration −6.0 Molar): −87%
Percent Growth (A498; A498, Log10 Concentration −7.0 Molar): −66%
Percent Growth (A498; A498, Log10 Concentration −8.0 Molar): 61%
GI50 (A498; Homo sapiens, A498): 12.4 nM
CC50 (A498; Homo sapiens, A498, read-out: LC50): 89 nM
GI50 (NCI-H226; Homo sapiens, NCI-H226): < 10 nM
CC50 (NCI-H226; Homo sapiens, NCI-H226, read-out: LC50): 501 nM
TGI (NCI-H226; NCI-H226): 4.46E−8 Molar
Percent Growth (NCI-H226; NCI-H226, Log10 Concentration −4.0 Molar): −65%
Percent Growth (NCI-H226; NCI-H226, Log10 Concentration −5.0 Molar): −59%
Percent Growth (NCI-H226; NCI-H226, Log10 Concentration −6.0 Molar): −62%
Percent Growth (NCI-H226; NCI-H226, Log10 Concentration −7.0 Molar): −22%
Percent Growth (NCI-H226; NCI-H226, Log10 Concentration −8.0 Molar): 40%
TGI (NCI-H522): 1.24E−5 Molar
GI50 (NCI-H522; Homo sapiens, NCI-H522): 2410 nM
CC50 (NCI-H522; Homo sapiens, NCI-H522, read-out: LC50): 51 µM
Percent Growth (NCI-H522; Log10 Concentration −4.0 Molar): −74%
Percent Growth (NCI-H522; Log10 Concentration −5.0 Molar): 7%
Percent Growth (NCI-H522; Log10 Concentration −6.0 Molar): 76%
Percent Growth (NCI-H522; Log10 Concentration −7.0 Molar): 82%
Percent Growth (NCI-H522; Log10 Concentration −8.0 Molar): 91%
GI50 (SK-MEL-28; Homo sapiens, SK-MEL-28): 18 µM
CC50 (SK-MEL-28; Homo sapiens, SK-MEL-28, read-out: LC50): > 100 µM
TGI (SK-MEL-28; SK-MEL-28): 4.44E−6 Molar
Percent Growth (SK-MEL-28; SK-MEL-28, Log10 Concentration −4.0 Molar): −45%
Percent Growth (SK-MEL-28; SK-MEL-28, Log10 Concentration −5.0 Molar): 82%
Percent Growth (SK-MEL-28; SK-MEL-28, Log10 Concentration −6.0 Molar): 93%
Percent Growth (SK-MEL-28; SK-MEL-28, Log10 Concentration −7.0 Molar): 93%
Percent Growth (SK-MEL-28; SK-MEL-28, Log10 Concentration −8.0 Molar): 83%
GI50 (SNB-19; Homo sapiens, SNB-19): 17.6 µM
CC50 (SNB-19; Homo sapiens, SNB-19, read-out: LC50): > 100 µM
TGI (SNB-19; SNB-19): 5.89E−5 Molar
Percent Growth (SNB-19; SNB-19, Log10 Concentration −4.0 Molar): −24%
Percent Growth (SNB-19; SNB-19, Log10 Concentration −5.0 Molar): 74%
Percent Growth (SNB-19; SNB-19, Log10 Concentration −6.0 Molar): 97%
Percent Growth (SNB-19; SNB-19, Log10 Concentration −7.0 Molar): 97%
Percent Growth (SNB-19; SNB-19, Log10 Concentration −8.0 Molar): 103%
GI50 (SF-539; Homo sapiens, SF-539): 10.9 µM
CC50 (SF-539; Homo sapiens, SF-539, read-out: LC50): 86.6 µM
TGI (SF-539; SF-539): 2.70E−5 Molar
Percent Growth (SF-539; SF-539, Log10 Concentration −4.0 Molar): −73%
Percent Growth (SF-539; SF-539, Log10 Concentration −5.0 Molar): 55%
Percent Growth (SF-539; SF-539, Log10 Concentration −6.0 Molar): 104%
Percent Growth (SF-539; SF-539, Log10 Concentration −7.0 Molar): 110%
Percent Growth (SF-539; SF-539, Log10 Concentration −8.0 Molar): 108%
IC50 in H460 cells (H460 cells; listed as K27): 7
IC50 in H460 cells (H460 cells): 8.43
GI50 (OVCAR-3; Homo sapiens, OVCAR-3): 569 nM
CC50 (OVCAR-3; Homo sapiens, OVCAR-3, read-out: LC50): 69.1 µM
TGI (OVCAR-3; OVCAR-3): 1.03E−5 Molar
Percent Growth (OVCAR-3; OVCAR-3, Log10 Concentration −4.0 Molar): −60%
Percent Growth (OVCAR-3; OVCAR-3, Log10 Concentration −5.0 Molar): 1%
Percent Growth (OVCAR-3; OVCAR-3, Log10 Concentration −6.0 Molar): 41%
Percent Growth (OVCAR-3; OVCAR-3, Log10 Concentration −7.0 Molar): 77%
Percent Growth (OVCAR-3; OVCAR-3, Log10 Concentration −8.0 Molar): 95%
TGI (ACHN): 2.25E−5 Molar
GI50 (ACHN; Homo sapiens): 2880 nM
CC50 (ACHN; Homo sapiens, read-out: LC50): > 100 µM
Percent Growth (ACHN; Log10 Concentration −4.0 Molar): −30%
Percent Growth (ACHN; Log10 Concentration −5.0 Molar): 16%
Percent Growth (ACHN; Log10 Concentration −6.0 Molar): 76%
Percent Growth (ACHN; Log10 Concentration −7.0 Molar): 92%
Percent Growth (ACHN; Log10 Concentration −8.0 Molar): 99%
GI50 (OVCAR-4; Homo sapiens, OVCAR-4): 340 nM
CC50 (OVCAR-4; Homo sapiens, OVCAR-4, read-out: LC50): > 100 µM
TGI (OVCAR-4; OVCAR-4): 1.80E−5 Molar
Percent Growth (OVCAR-4; OVCAR-4, Log10 Concentration −4.0 Molar): −29%
Percent Growth (OVCAR-4; OVCAR-4, Log10 Concentration −5.0 Molar): 10%
Percent Growth (OVCAR-4; OVCAR-4, Log10 Concentration −6.0 Molar): 31%
Percent Growth (OVCAR-4; OVCAR-4, Log10 Concentration −7.0 Molar): 71%
Percent Growth (OVCAR-4; OVCAR-4, Log10 Concentration −8.0 Molar): 94%
TGI (NCI/ADR-RES): 3.32E−6 Molar
GI50 (NCI/ADR-RES; Homo sapiens): 9.22 µM
CC50 (NCI/ADR-RES; Homo sapiens, read-out: LC50): > 100 µM
Percent Growth (NCI/ADR-RES; Log10 Concentration −4.0 Molar): −45%
Percent Growth (NCI/ADR-RES; Log10 Concentration −5.0 Molar): 48%
Percent Growth (NCI/ADR-RES; Log10 Concentration −6.0 Molar): 85%
Percent Growth (NCI/ADR-RES; Log10 Concentration −7.0 Molar): 94%
Percent Growth (NCI/ADR-RES; Log10 Concentration −8.0 Molar): 103%
